Patent US11331314B2, “Amine substituted triazole derivatives and uses thereof” (Bayer Pharma Aktiengesellschaft, priority 2017, dated 2022)

Tests used:
human V2 receptor = molecular target: T1, human V2 receptor (Homo sapiens, UniProt P30518); experiment: Cellular in vitro assay for determining vasopressin receptor activity, V2 receptor cell line (CRE-luciferase); assay type: cell-based; conditions: CHO cell line transfected with the human V2 receptor; agonist [Arg8]-vasopressin at EC50 concentration; read-out: IC50 hV2
T1 construct: expressed in transfected cells; host or cells: CHO K1 (ATCC) expressing firefly luciferase under a CRE-responsive promoter
T1 sequence (P30518 whole entry): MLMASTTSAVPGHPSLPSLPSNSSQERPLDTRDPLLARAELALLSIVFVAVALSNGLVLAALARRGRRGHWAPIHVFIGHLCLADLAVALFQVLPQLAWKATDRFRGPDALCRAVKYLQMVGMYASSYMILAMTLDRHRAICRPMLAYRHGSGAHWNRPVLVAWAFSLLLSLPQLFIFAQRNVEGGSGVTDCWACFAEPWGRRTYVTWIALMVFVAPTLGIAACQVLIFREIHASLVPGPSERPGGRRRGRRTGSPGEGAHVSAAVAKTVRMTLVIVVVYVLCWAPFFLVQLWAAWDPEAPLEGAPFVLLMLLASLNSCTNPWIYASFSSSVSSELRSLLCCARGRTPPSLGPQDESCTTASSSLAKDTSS

human V1a receptor = human V1a receptor (Homo sapiens, UniProt P37288); experiment: Cellular in vitro assay for determining vasopressin receptor activity, V1a receptor cell line (photoprotein luminescence); assay type: cell-based; conditions: for IC50: CHO cell line transfected with the human V1a receptor, agonist [Arg8]-vasopressin at EC50 concentration, read-out: IC50 hV1a; for ratio IC50 hV2/hV1a: selectivity ratio of the cellular IC50 values
Sequence of human V1a receptor (P37288 whole entry): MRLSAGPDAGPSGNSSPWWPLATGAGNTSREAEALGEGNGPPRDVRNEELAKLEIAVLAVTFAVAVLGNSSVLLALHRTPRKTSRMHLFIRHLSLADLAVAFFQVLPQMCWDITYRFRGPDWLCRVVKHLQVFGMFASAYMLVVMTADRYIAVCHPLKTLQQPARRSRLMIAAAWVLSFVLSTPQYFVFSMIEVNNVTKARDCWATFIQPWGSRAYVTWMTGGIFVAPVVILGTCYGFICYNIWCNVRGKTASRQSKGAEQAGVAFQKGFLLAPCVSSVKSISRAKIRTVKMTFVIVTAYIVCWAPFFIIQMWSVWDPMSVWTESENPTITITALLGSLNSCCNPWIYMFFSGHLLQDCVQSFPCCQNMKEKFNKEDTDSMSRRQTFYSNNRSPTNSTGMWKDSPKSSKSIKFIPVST
In short: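 CHO K1 cells stably expressing human V1a receptor with aequorin photoprotein, loaded overnight with coelenterazine. Compounds preincubated 10 min at various concentrations, then challenged with [Arg^8]-vasopressin at EC50 concentration. Calcium-driven luminescence read immediately; IC50 values derived.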

SMILES | IC50 (human V2 receptor) [nM] | IC50 (human V1a receptor) [nM] | ratio IC50 hV2/hV1a (human V1a receptor)
CC(C)(C)OC(=O)N1CCC(O)(CNc2nc(Cn3nc(-c4ccc(Cl)cc4)n(C[C@H](O)C(F)(F)F)c3=O)nn2-c2ccccc2Cl)CC1 [Example 21, tert-Butyl 4-({[1-(2-chlorophenyl)-3-({3-(4-chlorophenyl)-5-oxo-4-[(2S)-3,3,3-trifluoro-2-hydroxypropyl]-4,5-dihydro-1H-1,2,4-triazol-1-yl}methyl)-1H-1,2,4-triazol-5-yl]amino}methyl)-4-hydroxypiperidine-1-carboxylate] | 35.5 | 2 | 17.8
O=c1n(Cc2nc(NCC3(O)CCNCC3)n(-c3ccccc3Cl)n2)nc(-c2ccc(Cl)cc2)n1C[C@H](O)C(F)(F)F [Example 22, 5-(4-Chlorophenyl)-2-{[1-(2-chlorophenyl)-5-{[(4-hydroxypiperidin-4-yl)methyl]amino}-1H-1,2,4-triazol-3-yl]methyl}-4-[(2S)-3,3,3-trifluoro-2-hydroxypropyl]-2,4-dihydro-3H-1,2,4-triazol-3-one] | 12 | 0.46 | 26.1
CC(F)(F)CNc1nc(Cn2nc(-c3ccc(Cl)cc3)n(C[C@H](O)C(F)(F)F)c2=O)nn1-c1ccccc1Cl [Example 23, 5-(4-Chlorophenyl)-2-({1-(2-chlorophenyl)-5-[(2,2-difluoropropyl)amino]-1H-1,2,4-triazol-3-yl}methyl)-4-[(2S)-3,3,3-trifluoro-2-hydroxypropyl]-2,4-dihydro-3H-1,2,4-triazol-3-one] | 1.2 | 1.25 | 1.0
CS(=O)(=O)NCCNc1nc(Cn2nc(-c3ccc(Cl)cc3)n(C[C@H](O)C(F)(F)F)c2=O)nn1-c1ccccc1Cl [Example 24, N-(2-{[1-(2-Chlorophenyl)-3-({3-(4-chlorophenyl)-5-oxo-4-[(2S)-3,3,3-trifluoro-2-hydroxypropyl]-4,5-dihydro-1H-1,2,4-triazol-1-yl}methyl)-1H-1,2,4-triazol-5-yl]amino}ethyl)methanesulfonamide] | 1.02 | 0.4 | 2.6
O=c1n(Cc2nc(NCCN3CCCCS3(=O)=O)n(-c3ccccc3Cl)n2)nc(-c2ccc(Cl)cc2)n1C[C@H](O)C(F)(F)F [Example 25, 5-(4-Chlorophenyl)-2-{[1-(2-chlorophenyl)-5-{[2-(1,1-dioxido-1,2-thiazinan-2-yl)ethyl]amino}-1H-1,2,4-triazol-3-yl]methyl}-4-[(2S)-3,3,3-trifluoro-2-hydroxypropyl]-2,4-dihydro-3H-1,2,4-triazol-3-one] | 0.86 | 0.43 | 2.0
CC(C)(CNc1nc(Cn2nc(-c3ccc(Cl)cc3)n(C[C@H](O)C(F)(F)F)c2=O)nn1-c1ccccc1Cl)NS(C)(=O)=O [Example 26] | 2.2 | 0.4 | 5.6
O=c1n(Cc2nc(N3CCC(O)(C(F)(F)F)CC3)n(-c3ccccc3Cl)n2)nc(-c2ccc(Cl)cc2)n1C[C@H](O)C(F)(F)F [Example 28, 5-(4-Chlorophenyl)-2-({1-(2-chlorophenyl)-5-[4-hydroxy-4-(trifluoromethyl)piperidin-1-yl]-1H-1,2,4-triazol-3-yl}methyl)-4-[(2S)-3,3,3-trifluoro-2-hydroxypropyl]-2,4-dihydro-3H-1,2,4-triazol-3-one] | 10 | 0.66 | 15.3
CC(C)(N)CNc1nc(Cn2nc(-c3ccc(Cl)cc3)n(C[C@H](O)C(F)(F)F)c2=O)nn1-c1ccccc1Cl [Example 32, 2-({5-[(2-Amino-2-methylpropyl)amino]-1-(2-chlorophenyl)-1H-1,2,4-triazol-3-yl}methyl)-5-(4-chlorophenyl)-4-[(2S)-3,3,3-trifluoro-2-hydroxypropyl]-2,4-dihydro-3H-1,2,4-triazol-3-one] | 24.8 | 0.35 | 71.2
O=c1n(Cc2nc(N3CCC(F)(F)CC3)n(-c3ccccc3Cl)n2)nc(-c2ccc(Cl)cc2)n1C[C@H](O)C(F)(F)F [Example 34, 5-(4-Chlorophenyl)-2-{[1-(2-chlorophenyl)-5-(4,4-difluoropiperidin-1-yl)-1H-1,2,4-triazol-3-yl]methyl}-4-[(2S)-3,3,3-trifluoro-2-hydroxypropyl]-2,4-dihydro-3H-1,2,4-triazol-3-one] | 8.75 | 0.46 | 19.0
O=C1NCC2(CN(c3nc(Cn4nc(-c5ccc(Cl)cc5)n(C[C@H](O)C(F)(F)F)c4=O)nn3-c3ccccc3Cl)C2)N1 [Example 35, 2-[1-(2-Chlorophenyl)-3-({3-(4-chlorophenyl)-5-oxo-4-[(2S)-3,3,3-trifluoro-2-hydroxypropyl]-4,5-dihydro-1H-1,2,4-triazol-1-yl}methyl)-1H-1,2,4-triazol-5-yl]-2,5,7-triazaspiro[3.4]octan-6-one] | 6.05 | 0.48 | 12.6
O=c1n(Cc2nc(N3CC(O)(C(F)(F)F)C3)n(-c3ccccc3Cl)n2)nc(-c2ccc(Cl)cc2)n1C[C@H](O)C(F)(F)F [Example 36, 5-(4-Chlorophenyl)-2-({1-(2-chlorophenyl)-5-[3-hydroxy-3-(trifluoromethyl)azetidin-1-yl]-1H-1,2,4-triazol-3-yl}methyl)-4-[(2S)-3,3,3-trifluoro-2-hydroxypropyl]-2,4-dihydro-3H-1,2,4-triazol-3-one] | 1.75 | 0.82 | 2.1
O=c1n(Cc2nc(N3CCC(F)(F)C3)n(-c3ccccc3Cl)n2)nc(-c2ccc(Cl)cc2)n1C[C@H](O)C(F)(F)F [Example 37, 5-(4-Chlorophenyl)-2-{[1-(2-chlorophenyl)-5-(3,3-difluoropyrrolidin-1-yl)-1H-1,2,4-triazol-3-yl]methyl}-4-[(2S)-3,3,3-trifluoro-2-hydroxypropyl]-2,4-dihydro-3H-1,2,4-triazol-3-one] | 1.33 | 0.44 | 3.1
O=c1n(Cc2nc(N3CCC4OCCC43)n(-c3ccccc3Cl)n2)nc(-c2ccc(Cl)cc2)n1C[C@H](O)C(F)(F)F (stereo partly drawn) [Example 38, 5-(4-Chlorophenyl)-2-{[1-(2-chlorophenyl)-5-(hexahydro-4H-furo[3,2-b]pyrrol-4-yl)-1H-1,2,4-triazol-3-yl]methyl}-4-[(2S)-3,3,3-trifluoro-2-hydroxypropyl]-2,4-dihydro-3H-1,2,4-triazol-3-one] | 3.55 | 0.4 | 8.9
CC1(C)CN(c2nc(Cn3nc(-c4ccc(Cl)cc4)n(C[C@H](O)C(F)(F)F)c3=O)nn2-c2ccccc2Cl)CCO1 [Example 39, 5-(4-Chlorophenyl)-2-{[1-(2-chlorophenyl)-5-(2,2-dimethylmorpholin-4-yl)-1H-1,2,4-triazol-3-yl]methyl}-4-[(2S)-3,3,3-trifluoro-2-hydroxypropyl]-2,4-dihydro-3H-1,2,4-triazol-3-one] | 18 | 0.58 | 31.0
O=C(CNc1nc(Cn2nc(-c3ccc(Cl)cc3)n(C[C@H](O)C(F)(F)F)c2=O)nn1-c1ccccc1Cl)NCC(F)(F)F [Example 40, N^2-[1-(2-Chlorophenyl)-3-({3-(4-chlorophenyl)-5-oxo-4-[(2S)-3,3,3-trifluoro-2-hydroxypropyl]-4,5-dihydro-1H-1,2,4-triazol-1-yl}methyl)-1H-1,2,4-triazol-5-yl]-N-(2,2,2-trifluoroethyl)glycinamide] | 7.2 | 0.72 | 10.1
NS(=O)(=O)CCNc1nc(Cn2nc(-c3ccc(Cl)cc3)n(C[C@H](O)C(F)(F)F)c2=O)nn1-c1ccccc1Cl [Example 44, 2-{[1-(2-Chlorophenyl)-3-({3-(4-chlorophenyl)-5-oxo-4-[(2S)-3,3,3-trifluoro-2-hydroxypropyl]-4,5-dihydro-1H-1,2,4-triazol-1-yl}methyl)-1H-1,2,4-triazol-5-yl]amino}ethanesulfonamide] | 1.16 | 0.34 | 3.5
O=C1CCCN1CCNc1nc(Cn2nc(-c3ccc(Cl)cc3)n(C[C@H](O)C(F)(F)F)c2=O)nn1-c1ccccc1Cl [Example 45, 5-(4-Chlorophenyl)-2-{[1-(2-chlorophenyl)-5-{[2-(2-oxopyrrolidin-1-yl)ethyl]amino}-1H-1,2,4-triazol-3-yl]methyl}-4-[(2S)-3,3,3-trifluoro-2-hydroxypropyl]-2,4-dihydro-3H-1,2,4-triazol-3-one] | 13 | 2.45 | 5.3
O=C1NCCN1CCNc1nc(Cn2nc(-c3ccc(Cl)cc3)n(C[C@H](O)C(F)(F)F)c2=O)nn1-c1ccccc1Cl [Example 46, 5-(4-Chlorophenyl)-2-{[1-(2-chlorophenyl)-5-{[2-(2-oxoimidazolidin-1-yl)ethyl]amino}-1H-1,2,4-triazol-3-yl]methyl}-4-[(2S)-3,3,3-trifluoro-2-hydroxypropyl]-2,4-dihydro-3H-1,2,4-triazol-3-one] | 5.47 | 0.65 | 8.5
O=c1n(Cc2nc(N3CC4(C3)CS(=O)(=O)C4)n(-c3ccccc3Cl)n2)nc(-c2ccc(Cl)cc2)n1C[C@H](O)C(F)(F)F [Example 47, 5-(4-Chlorophenyl)-2-{[1-(2-chlorophenyl)-5-(2,2-dioxido-2-thia-6-azaspiro[3.3]hept-6-yl)-1H-1,2,4-triazol-3-yl]methyl}-4-[(2S)-3,3,3-trifluoro-2-hydroxypropyl]-2,4-dihydro-3H-1,2,4-triazol-3-one] | 5.63 | 0.96 | 5.8
